Results taken from patent publication US6413983B1, “Benzopyranyl heterocycle derivatives, process for preparation thereof, and pharmaceutical compositions containing them” (Dongbu Hannong Chemical Co. Ltd., priority 2000, dated 2002).

Tests used:
[1] = tested on: isolated rat aorta constricted with methoxamine; experiment: Vasodilation effects on isolated aorta of rats (methoxamine-constricted rings); settings: isolated rat aorta constricted with methoxamine (3 μM); 50% relaxation
From the text: Male Sprague-Dawly rats (350-450 g, obtained from the Experimental Animal Team of the Korea Research Institute of Chemical Technology) were knocked unconscious by hitting the occipital region, sacrificed by cervical dislocation, and underwent thoracotomy. After being quickly removed, the thoracic aorta was deprived of the adipose tissue and cut into aortic rings of 3 mm width. The aorta was lightly rubbed with cotton club soaked in a modified Krebs Henseleit buffer (Physiological Salt Solution, PSS) to remove the inner epithelial layer therefrom.
Thereafter, 3×10^−6 M methoxamine was applied to induce an intensive constriction in the vascular smooth muscle. When the vasoconstriction induced by the methoxamine was reached and maintained to a maximum, test compounds and controls were cumulatively added to the organ baths in concentrations of 1, 3, 10 and 30 μM so as to examine the vasodilation effect.
The change rate of constriction by the addition of the drugs compared to the maximal constriction induced by methoxamine was calculated to plot a concentration-relaxation response curve.

[2] = tested on: isolated rat hearts; experiment: Cardioprotective activity in isolated ischemic heart models of rats (Langendorff, global ischemia/reperfusion); settings: 10 μM; for LDH (U/g): cumulative reperfusion LDH release; for EDP (MmHg): left ventricular end-diastolic pressure after 30 min reperfusion; for LDVP × HR (%): reperfusion double product as % of pretreatment DP, 30 min global ischemia, 30 min reperfusion; for TTC: time to contracture during global ischemia
Protocol: Male Sprague-Dawley rats weighing 300-450 g were anesthetized with sodium pentobarbital (100 mg/kg, i.p.). The tail vein was injected with heparin (1,000 U/kg) and then the trachea was intubated. […] A latex balloon filled with solvent (ethanol: water=1:1 (v/v)) and attached to a metal cannula was placed in the left ventricle through pulmonary vein and connected to a Isotec pressure transducer (H.S.E., Germany) for measurement of left ventricular pressure (LVP). […] Then, baseline contractile function, heart rate (HR), and coronary flow (CF) (extracorporeal electromagnetic flow probe, Narco Bio-System, U.S.A.) were measured. Cardiac contractile function was calculated by subtracting LVEDP from LV peak systolic pressure (LVSP), yielding developed pressure (LVDP). Double product (DP), another important parameter for assessing cardiac performance, was calculated by multiplying HR by LVDP. Throughout the experiment, all these parameters were measured, and calculated before and 10 min after pretreatment with each compound and 30 min after the onset of reperfusion with buffer. Data on reperfusion DP were further expressed as the percentage to pretreatment DP.
We then rendered the hearts globally ischemic by completely shutting off the perfusate for 30 min. Severity of ischemia was determined as the time to contracture (TTC, min) during global ischemia in which the first 5 mmHg increase in EDP was observed. Then, the hearts were reperfused and, 30 min later, contractile function (LVDP, DP) and cumulative reperfusion lactate dehydrogenase (LDH) release were measured. LDH was measured as a sensitive index for loss of cell viability with a kit supplied by Boerhinger Mannheim based on the technique of Wroblewski and LaDue [F. Wroblewski and JS.

[3] = tested on: ischemic myocardium damage model of anesthetized rats; experiment: Cardioprotective activity in ischemic heart models of rats (LAD occlusion/reperfusion, anesthetized rats); format: in vivo, rat; settings: rat in vivo, 0.3 mg/kg i.v.; for AAR/LV (%): area at risk per left ventricle; for IZ/AAR (%): myocardial infarction rate to area at risk, 45 min occlusion, 90 min reperfusion
Protocol: After trachetomy, the rats were rendered to respire artificially at a rate of 60/min with a stroke volume of 10 ml/kg. Cannulars were inserted into the fermoral vein and the fermoral artery and used for drug administration and blood pressure measurement, respectively.
In the ischemic myocardial injury models, the body temperature has an important influence on the results. To avoid the change in the body temperature, a body temperature measuring probe was inserted into the rectum of each rat and the body temperature was constantly kept at 37° C. with the aid of a homeothermic blanket control unit.
Afterwards, during testing, a continuous measurement was made of the mean arterial blood pressures and heart rates from the rats. For the measurement of the blood pressure, a pressure transducer, such as that manufactured by Grass Ins., MA, U.S.A., identified as Model Statham P23XL, was used.
The heart rate was measured by a tachometer, such as that manufactured by Gould Inc., Ohio, U.S.A., identified as Biotachometer. In addition, all of the changes occurring were continuously recorded through the Gould 2000 chart recorder, manufactured by Gould Inc.
The left coronary artery was occluded according to the Selye H. method as follows. The rats underwent a left thoracotomy operation for partial opening of the chest and the right-side chest was pressurized by the middle finger of the left hand to push the heart out. Immediately after the left anterior descending coronary artery hereinafter referred to as (LAD) was carefully stitched using a suture needle with 5-0 silk ligature, the heart was then repositioned in the thoracic cavity while both ends of the ligature were situated outside. The opposite ligature ends were passed through a PE tube (PE100, 2.5 cm) and allowed to stand loose for 20 min for stabilization. Via the cannula inserted into the femoral vein, vehicles or drugs were administered into the rats which were rendered to stand for 30 min in order to sufficiently elicit the efficacies of the drugs.
Next, the PE tube which had the doubled strands of the ligature passed therethrough was pushed toward the heart and then, set upright by tightly pulling end regions of the ligature with a hemostatic pincette while pressing the coronary artery.
After the reocclusion of the coronary artery in accordance with the above procedure, the rats were administered with 2 ml of a 1% Evans blue through an intravenous route. Subsequently, an excess of pentobarbital was intravenously injected to kill the rats, after which the heat was removed and then, deprived of the right ventricle and both atria. The left ventricle was cut horizontally to the heart apex into 5 or 6 slices which were weighed. From the surface of each slice, images were input with the aid of a Hi-scope into a computer installed with an image analyzing program (Image Pro Plus). From the images input into the computer, the area of the normal blood stream tissue region which appeared blue in a computer monitor and the area which appeared colorless were measured. The percentage of the colorless area to the total area of each slice was calculated and multiplied by the weight of each slice to determine the area at risk (AAR) of each slice. The AAR obtained from each slice was summed for all slices and the total AAR was divided by the total weight of the left ventricle to yield % AAR, as shown in the following mathematical formula 1:
AAR(%)=(summed AAR for all slices)/(total weight of left ventricle)×100 [Mathematical Formula 1]
During this fixation, 2,3,5-triphenyltetrazolium chloride was reduced into formazan dye by the myocardial dehydrogenase and its cofactor NADH, so that the normal regions of the tissue were colored brick-red. In contrast, the infarct zones of the tissue were deficient in the dehydrogenase and its cofactor, so that no reduction occurred on the 2,3,5-triphenyltetrazolium, allowing the color to remain unchanged.

[4] = tested on: cerebral cortical neurons; experiment: Protective activity for neuronal cells against iron-induced damage (LDH release); format: cell-based, rat; settings: 30 μM compound; 50 uM FeSO4, 24 hours; LDH reduction rate vs control
Protocol: From the brains of 17-18 day-old rat embryos, cerebral cortical neurons were isolated and then, cultured at 37° C. for 7-9 days in a 5% CO2 incubator. The cortical cell cultures were washed twice with a minimum essential medium (MEM) to reduce the serum concentration to 0.2% and pre-treated for 30 min with 30 μM of each of test compounds. For the experiments, the test compounds were dissolved in DMSO and diluted in a medium. At this time, the final concentration of DMSO was not allowed to exceed 0.2%. For a control group, only vehicle was applied.
After the pre-treatment with test compounds or vehicle, FeSO4 was added to a final concentration of 50 uM, and the cultures were maintained for 24 hours in a CO2 incubator. During incubation, lactate dehydrogenase (LDH) was released into the medium upon neuronal death by the oxidative toxicity of iron. The extent of neuronal damage was assessed by measuring the amount of LDH released into the media. The protective effect of the compounds of interest on neurons was evaluated by calculating the LDH reduction rate of treatment group compared with that of the control group.

[5] = in vivo; settings: SD, rat, po, 1 g/kg
Protocol: In this test six-week old SPF SD rats were used with two rats assigned to each group. […] The dosing volume was 10 ml/kg. […] All survivors at the end of the observation period underwent laparotomy under ether anesthesia and the blood samples were taken from the abdominal aorta for hematological tests and biochemical analysis. After sacrificing the animals, autopsy was performed for macroscopic observation of the organs and tissues. Tissue samples of vital organs from macroscopic legion were removed and fixed in 10% neutral buffered formalin solution, then processed by standard procedures for histopathology and examined under light microscope.

| SMILES | IC50 [1] [µM] | LDH (U/g) [2] [U/g] | EDP (MmHg) [2] [MmHg] | LDVP × HR (%) [2] [%] | TTC [2] [min] | AAR/LV (%) [3] [%] | IZ/AAR (%) [3] [%] | % Protection [4] [%] | LD50 [5] [mg/kg] |
| --- | --- | --- | --- | --- | --- | --- | --- | --- | --- |
| CCOC(=O)[C@@H]1Cc2ccccc2N1[C@H]1c2cc([N+](=O)[O-])ccc2O[C@](C)(C(OC)OC)[C@@H]1O [Example 2, 1-[(2S, 3R, 4S)-3,4-dihydro-2-dimethoxymethyl-3-hydroxy-2-methyl-6-nitro-2H-1-benzopyran-4-yl]-(2S)-2,3-dihydro-1H-indole-2-carboxylic acid ethyl ester] | 24.3 | 17.8 | 25.7 | 55.1 | 22.6 | 32.6 | 39.1 | 79 | > 1000 |
| COC(OC)[C@@]1(C)Oc2ccc([N+](=O)[O-])cc2[C@H](N2c3ccccc3C[C@H]2C(=O)OC(C)C)[C@H]1O [Example 10, 1-[(2S, 3R, 4S)-3,4-dihydro-2-dimethoxymethyl-3-hydroxy-2-methyl-6-nitro-2H-1-benzopyran-4-yl]-(2S)-2,3-dihydro-1H-indole-2-carboxylic acid isopropyl ester] | – | – | – | – | – | – | – | – | > 1000 |
| CCOC(=O)[C@H]1Cc2ccccc2N1[C@@H]1c2cc([N+](=O)[O-])ccc2O[C@@](C)(C(OC)OC)[C@H]1O [Example 30, 1-[(2R, 3S, 4R)-3,4-dihydro-2-dimethoxymethyl-3-hydroxy-2-methyl-6-nitro-2H-1-benzopyran-4-yl]-(2R)-2,3-dihydro-1H-indole-2-carboxylic acid ethyl ester] | > 30 | 9.2 | 11.3 | 64.1 | 27.1 | 33.6 | 38.9 | – | > 1000 |
| CCCOC(=O)[C@H]1Cc2ccccc2N1[C@@H]1c2cc([N+](=O)[O-])ccc2O[C@@](C)(C(OC)OC)[C@H]1O [Example 34, 1[-(2R, 3S, 4R)-3,4-dihydro-2-dimethoxymethyl-3-hydroxy-2-methyl-6-nitro-2H-1-benzopyran-4-yl]-(2R)-2,3-dihydro-1H-indole-2-carboxylic acid n-propyl ester] | – | – | – | – | – | – | – | – | > 1000 |
